The source of these data is patent US12522575B2, “2-diarylmethyl-4-aminotetrahydropyran derivatives and related compounds as anticancer, antiinflammatory, antifibrotic and neuroprotective agents” (Atux Iskay LLC, priority 2021, dated 2026).

The series has as its system bleomycin-induced pulmonary fibrosis. Nature of the series: Bleomycin induced lung fibrosis model in mice. In kind it is in vivo. The text has this:
Bleomycin exposure reproducibly induces lung fibrosis in mice and bleomycin induced lung fibrosis is commonly used as an animal model to assess the efficacy of experimental therapeutics for idiopathic pulmonary fibrosis, see for example Tashiro et al, “Exploring Animal Models that Resemble Idiopathic Pulmonary Fibrosis”, Front. Med. 4:118 (2017). doi: 10.3389/fmed.2017.0018. Herein presented are data on the efficacy of Example 6 (Ex-6) in cellular models of lung fibrosis and in a mouse bleoycin induced lung fibrosis model, see FIGS. 1 through 8.
In brief, the animal model consisted of bleomycin administration using a combined protocol previously described by Wyman et al (Wyman, A. E., et al., “Sirtuin 7 is decreased in pulmonary fibrosis and regulates the fibrotic phenotype of lung fibroblasts”. Am J Physiol Lung Cell Mol Physiol, 2017. 312 (6): p. L945-L958.) and Geraghty et al (Geraghty, P. and Foronjy, R. ‘Protein Transfection of Mouse Lung’. J Vis Exp, (75), e50080 2013 May 15). After sedation was achieved (87.5 mg/kg Ketamine/12.5 mg/kg xylazine), mice were suspended from their upper incisors (see Geraghty et al. for visual publication of intratracheal delivery). The oropharynx was opened so that a catheter/Penn Century MicroSprayer (Penn-Century, Wyndmoor, Philadelphia, PA) can be introduced into the trachea. The vocal cords and trachea were visualized by placing a light source against the trachea of the mouse. The MicroSprayer was inserted intratracheally, and the bleomycin solution (0.075 U/mouse) was instilled in 50 μL of sterile PBS. The MicroSprayer creates a mist rather than droplets, for better tissue distribution and reduces the risk of animal suffocation. Control mice were instilled with 50 μl of sterile PBS with no additives. This intratracheal maneuvering and delivery took about 30 seconds to complete. Animals were allowed to recover from sedation. Water was supplemented with the compound/drug beginning either before, 7 or 20 days after bleomycin treatment.
Ex-6 was dosed at 5 mg/kg in the bleomycin induced fibrosis. In vivo data is shown in FIG. 3: C57BL/6J mice were orally administered 5 mg/kg Ex-6 once daily, beginning on the same day as bleomycin (BLM) treatment to test if activation of PP2A could prevent establishment of idiopathic pulmonary fibrosis (IPF). […] Differences were shown in compliance, tissue elastance, and forced vital capacity of 3-month-old C57BL/6J mice following administration of vehicle or Example 6 after tracheal instillation of saline or bleomycin, indicating prevention of bleomycin-induced pulmonary fibrosis in mice by administration of Example 6. Graphs were represented as mean±S.E.M, where n=7 animals per group. P values, shown when comparing both treatments connected by a line, were determined by Student t-tests. […]

In the case of `O=S(=O)(NC1CCOC(C2c3ccc(F)cc3CCc3cc(F)ccc32)C1)c1ccc(OC(F)(F)F)cc1` (stereo not shown) [Example 6, N-(2-(2,8-difluoro-10,11-dihydro-5H-dibenzo[a,d][7]annulen-5-yl)tetrahydro-2H-pyran-4-yl)-4-(trifluoromethoxy)benzenesulfonamide], the “bleomycin-induced PV loop changes, compliance, tissue elastance and forced vital capacity (FVC)” value (5 mg/kg orally once daily from the day of bleomycin, C57BL/6J mice (FIG. 6)) was “prevented”. Besides, the “collagen deposition in lung (trichrome staining)” value (bleomycin mice, vs vehicle control (FIG. 7)) was “attenuates collagen deposition”. For the same compound, for the setting “bleomycin mice, vs vehicle control (FIG. 8)”, the “bleomycin-induction of fibrosis related genes Acta2, Ccn2, Col1a1, FN1 in lung tissue” value is listed as “suppressed”. The “toxicity in mice (external appearance, behavior, body weight)” value (three-week administration, vs vehicle groups) is given as “no obvious toxicity”.
